We go through 22 molecules from patent publication US9504729B2, “Antiangiogenic small molecules and methods of use” (The United States of America, as represented by the …, priority 2009, dated 2016).

Structures can show the parent of a compound that is named as a salt. Where two headings read alike, the source gives them in different places.

For series [1], the system named is PAE. Nature of the series: Apoptosis in PAE. Format: cell-based, porcine.
Series [2] deals with endothelial cells. Nature of the series: Primary screening: cell-based growth HTS and tube formation HTS (bioactivity class).
Protocol: All assays were performed in clear bottom black 96-well plates. The plates were always arranged to include a column for negative controls (column 1), a column for positive controls (column 12), and 10 columns for evaluation of 80 compounds. In order to increase stringency and avoid false positives in the HTS assays, all compounds were tested at a low final concentration of 1 μM.
In summary, 1,000 cells/well were seeded in the 96-well plates described above. Cells in columns 2-12 were seeded in 10% FBS and cells in column 1 (negative control) were seeded in 0% FBS. Small molecules (80 per plate) were added in columns 2-11 at a final concentration of 1 μM (both positive and negative controls were exposed to the same percentage of DMSO in wells containing test compounds). The fluorescence emitted by every well was measured spectrophotometrically (Infinite M200, TECAN®, Mannedorf, Switzerland) every 24 hours for 5-7 days.
In summary, 20,000 cells/well were seeded on top of 50 μl of pre-gelled GELTREX® gel matrix (Invitrogen, Carlsbad, Calif.). All cells were seeded in 10% FBS. […] Small molecules (80 per plate) were added to columns 2-11 at a final concentration of 1 μM (both positive and negative controls were exposed to the same percentage of DMSO in wells containing test compounds). Plates were incubated for 5-7 hours and automatically imaged with the help of an epifluorescence microscope (Axiovert® 200M, Zeiss) equipped with a motorized stage and AxioVision® (Zeiss) software.
For hit detection, a stringent threshold (sigma 3.5) was applied to avoid false positives.
In series [3] the test system is PAE cells. Nature of the series: Growth dose response (IC50) in PAE. The class given is cell-based, porcine. The conditions noted are these: read-out: Growth IC50 (M) in PAE. From the text:
FIG. 6: Dose response curves were constructed for all the SMs of interest using PAE cells. Data were fitted to non-linear sigmoid curves using GraphPad Prism (GraphPad Software, Inc., La Jolla, Calif.).
Dose response curves were constructed for all the SM of interest using PAE cells. Data were fitted to non-linear sigmoid curves using GraphPad Prism (GraphPad software, Inc.).

Series [4] can be described thus: in vitro. The conditions noted are these: pig.
Series [5] deals with KDR(VEGFR2) (Homo sapiens, UniProt P35968). The series is described as follows: SelectScreen kinase activity profiling, KDR(VEGFR2). Format: biochemical. The conditions noted are these: VEGFR2 receptor. An excerpt: To characterize the RTK inhibitory activity of the antiangiogenic SMs described herein, 36 compounds were chosen and screened using Invitrogen's SelectScreen® kinase activity profiling service (described on-line at tools.invitrogen.com/content.cfm?pageid=10413#selection). VEGFR1 and FGFR2 RTK inhibitory activities were studied. […] Overall, a small minority of the SMs tested had any substantial kinase inhibitory activity. This observation supports a mechanism of antiangiogenic action other than RTK inhibition for most of the SMs described herein.
Sequence of KDR(VEGFR2) (P35968 20-1356): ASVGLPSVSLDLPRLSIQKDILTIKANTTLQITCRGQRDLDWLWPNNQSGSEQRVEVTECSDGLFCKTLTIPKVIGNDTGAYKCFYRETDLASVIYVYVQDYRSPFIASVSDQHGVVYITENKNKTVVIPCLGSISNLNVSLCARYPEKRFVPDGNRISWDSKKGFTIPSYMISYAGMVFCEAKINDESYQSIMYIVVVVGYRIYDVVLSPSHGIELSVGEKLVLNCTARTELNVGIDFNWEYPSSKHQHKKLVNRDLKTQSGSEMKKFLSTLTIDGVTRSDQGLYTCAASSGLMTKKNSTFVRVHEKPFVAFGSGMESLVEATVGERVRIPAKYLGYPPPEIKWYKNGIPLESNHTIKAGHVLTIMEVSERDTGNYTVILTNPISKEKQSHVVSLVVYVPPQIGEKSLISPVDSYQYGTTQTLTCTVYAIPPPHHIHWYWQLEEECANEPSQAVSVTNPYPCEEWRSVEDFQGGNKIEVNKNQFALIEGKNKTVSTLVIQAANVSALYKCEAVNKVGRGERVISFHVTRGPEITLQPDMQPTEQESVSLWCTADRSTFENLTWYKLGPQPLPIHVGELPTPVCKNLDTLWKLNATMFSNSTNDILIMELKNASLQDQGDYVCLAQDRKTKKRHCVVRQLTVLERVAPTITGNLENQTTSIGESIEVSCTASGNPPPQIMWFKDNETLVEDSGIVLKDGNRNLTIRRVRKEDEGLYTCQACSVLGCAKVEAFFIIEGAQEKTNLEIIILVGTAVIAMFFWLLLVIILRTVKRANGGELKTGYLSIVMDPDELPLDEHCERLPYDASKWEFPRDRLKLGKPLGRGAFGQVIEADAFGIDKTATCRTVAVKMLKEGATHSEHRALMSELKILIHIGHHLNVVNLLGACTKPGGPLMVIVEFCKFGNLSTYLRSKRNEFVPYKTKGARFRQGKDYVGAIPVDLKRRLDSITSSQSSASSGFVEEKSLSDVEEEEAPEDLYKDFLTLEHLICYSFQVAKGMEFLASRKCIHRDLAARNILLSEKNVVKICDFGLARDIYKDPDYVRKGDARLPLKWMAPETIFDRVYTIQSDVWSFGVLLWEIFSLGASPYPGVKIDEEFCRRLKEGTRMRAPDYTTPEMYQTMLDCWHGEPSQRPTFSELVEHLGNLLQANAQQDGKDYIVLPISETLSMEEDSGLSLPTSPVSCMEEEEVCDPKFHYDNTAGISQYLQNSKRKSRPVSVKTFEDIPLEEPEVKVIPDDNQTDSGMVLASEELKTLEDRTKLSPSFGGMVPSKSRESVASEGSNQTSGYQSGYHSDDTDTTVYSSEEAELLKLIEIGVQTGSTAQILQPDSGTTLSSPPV

With “3-[(2,4- dimethylphenyl)carbamoyl]naphthalen-2- olate; N-(2,4-dimethylphenyl)-3- hydroxynaphthalene-2-carboxamide; nickel(2+) [Compound 37]”, the “Apoptosis PAE (RFU)” value in series [1] worked out at 2.037 RFU. In series [2], the Bioactivity stood at 1. Besides, the IC50 in series [3] was more than 1e-06 M.

With `Cc1c(Cl)cc(C(C)(C)C)c(O)c1Cc1c(C)c(Cl)cc(C(C)(C)C)c1O` [Compound 17, 6-tert-butyl-2-[(3-tert-butyl-5-chloro-2-hydroxy-6-methylphenyl)methyl]-4-chloro-3-methylphenol], in series [3] (Sus scrofa, PAE cells), the IC50 stood at 3.98e-10 M. Moreover, in series [4], the cytotoxicity was 7.34%.

On to `C[C@H]1CCC/C=C/[C@@H]2C[C@H](OC(=O)CN(C)C)C[C@H]2[C@H](O)/C=C/C(=O)O1` [Compound 18, [(1R,2R,3E,7S,11E,13S,15S)-2-hydroxy-7-methyl-5-oxo-6-oxabicyclo[11.3.0]hexadeca-3,11-dien-15-yl]2-(dimethylamino)acetate], for which, in series [3] (Sus scrofa, PAE cells), the IC50 amounted to 4.64e-10 M. The same molecule yielded a cytotoxicity in series [4] of 7.6%.

For the molecule `Cc1cc(O)c(C(C)C)cc1C1(c2cc(C(C)C)c(O)cc2C)OC(=O)c2ccccc21` [Compound 19, 3,3-bis(4-hydroxy-2-methyl-5-propan-2-ylphenyl)-2-benzofuran-1-one], the IC50 in series [3] (Sus scrofa, PAE cells) was determined as 9.63e-10 M. The molecule also came in with a cytotoxicity in series [4] of 6.56%.

With `CC1(C)N=C(N)N=C(N)N1c1cccc(CSc2ccccc2)c1` [Compound 21, 6,6-dimethyl-1-[3-(phenylsulfanylmethyl)-phenyl]-1,3,5-triazine-2,4-diamine hydrochloride], in series [3] (Sus scrofa, PAE cells), the IC50 was 2.29e-11 M. In series [4], this molecule had a cytotoxicity of 6.57%.

For the molecule `Cc1cc(OCc2nc(N)nc(N)c2-c2ccc(Cl)c(Cl)c2)ccc1[N+](=O)[O-]` [Compound 22, 5-(3,4-dichlorophenyl)-6-[(3-methyl-4-nitrophenoxy)methyl]pyrimidine-2,4-diamine], the IC50 in series [3] (Sus scrofa, PAE cells) is 1.54e-12 M. Besides, the cytotoxicity in series [4] was 6.75%.

As for `CC1(C)N=C(N)N=C(N)N1c1cccc(OCc2cccc([N+](=O)[O-])c2)c1` [Compound 23, 6,6-dimethyl-1-[3-[(3-nitrophenyl)methoxy]-phenyl]-1,3,5-triazine-2,4-diamine chloride], the IC50 in series [3] (Sus scrofa, PAE cells) worked out at 1.21e-09 M. The cytotoxicity in series [4] came to 7.02%.

Consider `CCCC(c1cc(C(C)(C)C)c(O)cc1C)c1cc(C(C)(C)C)c(O)cc1C` [Compound 24, 2-tert-butyl-4-[1-(5-tert-butyl-4-hydroxy-2-methylphenyl)butyl]-5-methylphenol], for which, in series [3] (Sus scrofa, PAE cells), the 50% inhibitory concentration (IC50) was more than 1e-06 M. Also, in series [4], the cytotoxicity worked out at 8.54%.

Consider `Oc1ccc(Cl)cc1Cc1cc(Cl)cc(Cc2cc(Cl)ccc2O)c1O` [Compound 25, 4-chloro-2,6-bis[(5-chloro-2-hydroxyphenyl)methyl]phenol], for which the IC50 in series [3] (Sus scrofa, PAE cells) was found to be 2.27e-10 M. The molecule further yielded a cytotoxicity in series [4] of 9.57%.

For the molecule `CN(C)CCC(=O)[C@@]1(O)CC[C@H]2[C@@H]3CC=C4C[C@@H](O)CC[C@]4(C)[C@H]3CC[C@@]21C` [Compound 27, 1-[(3S,8R,9S,10R,13S,14S,17R)-3,17-dihydroxy-10,13-dimethyl-1,2,3,4,7,8,9,11,12,14,15,16-dodecahydrocyclopenta[a]phenanthren-17-yl]-3-(dimethylamino)propan-1-one chloride], the IC50 in series [3] (Sus scrofa, PAE cells) was more than 1e-06 M. Moreover, the cytotoxicity in series [4] is 7.9%.

In the case of `Nc1nc(N)c(-c2cccc(C(F)(F)F)c2)c(Cc2cccc(C(F)(F)F)c2)n1` [Compound 28, 5-[3-(trifluoromethyl)phenyl]-6-[[3-(trifluoromethyl)phenyl]methyl] pyrimidine-2,4-diamine], in series [3] (Sus scrofa, PAE cells), the IC50 stood at 7.41e-11 M. Moreover, the cytotoxicity in series [4] was 8.65%.

As for `O=C(c1ccc([N+](=O)[O-])cc1)C(Br)C(Br)c1ccnc2ccccc12` (stereo not shown) [Compound 29, 2,3-dibromo-1-(4-nitrophenyl)-3-quinolin-4-ylpropan-1-one], in series [3] (Sus scrofa, PAE cells), the IC50 is more than 1e-06 M. The same molecule came in with a cytotoxicity in series [4] of 9.78%.

For `Cc1c2cc[n+](CCN3CCCCC3)cc2c(C)c2c1[nH]c1ccc(O)cc12` [Compound 30, 5,11-dimethyl-2-(2-piperidin-1-ylethyl)-6H-pyrido[4,3-b]carbazol-2-ium-9-ol acetate], in series [3] (Sus scrofa, PAE), the concentration for half-maximal inhibition (IC50) is 9.27e-10 M. The molecule also returned a cytotoxicity in series [4] of 8.81%.

For the molecule `CC(=O)O/C(=C1\C[C@H]2[C@@H]3CC=C4C[C@@H](OC(C)=O)CC[C@]4(C)[C@H]3CC[C@]2(C)C1=O)C(F)(F)F` [Compound 31, [(3S,8R,9S,10R,13S,14S,16E)-16-(1-acetyloxy-2,2,2-trifluoroethylidene)-10,13-dimethyl-17-oxo-2,3,4,7,8,9,11,12,14,15-decahydro-1H-cyclopenta[a]phenanthren-3-yl]acetate], in series [3] (Sus scrofa, PAE cells), the half-inhibitory concentration (IC50) worked out at 0.000506 M. The molecule further gave a cytotoxicity in series [4] of 7.62%.

As to `CS(=O)(=O)Nc1ccc(Nc2c3ccccc3nc3ccccc23)cc1` [Compound 32, N-[4-(acridin-9-ylamino)phenyl]-methanesulfonamide; methanesulfonic acid], the IC50 in series [3] (Sus scrofa, PAE cells) is more than 1e-06 M. Besides, the cytotoxicity in series [4] stood at 6.82%.

For the molecule `Cc1cc(Cc2cc(C)cc(C(C)(C)C)c2O)c(O)c(Cc2cc(C)cc(C(C)(C)C)c2O)c1` [Compound 33, 2-tert-butyl-6-[[3-[(3-tert-butyl-2-hydroxy-5-methylphenyl)methyl]-2-hydroxy-5-methylphenyl]methyl]-4-methylphenol], the IC50 in series [3] (Sus scrofa, PAE cells) came out at 2.8e-10 M. Further, the cytotoxicity in series [4] was determined as 7.44%.

`CCC1(OC(=O)CN)C(=O)OCc2c1cc1n(c2=O)Cc2cc3ccccc3nc2-1` (stereo not shown) [Compound 34, 4-Ethyl-3,14-dioxo-3,4,12,14-tetrahydro-1H-pyrano[3′,4′:6,7]indolizino[1,2-b]quinolin-4-yl aminoacetate hydrochloride]: the half-inhibitory concentration (IC50) in series [3] (Sus scrofa, PAE) amounted to 9.92e-12 M. The molecule further returned a cytotoxicity in series [4] of 10.2%.

Turning to `COc1cccc2c(O)c3c(c(N)c12)C(=O)C1=C(C[C@@](O)(C(C)=O)C[C@@H]1OC1CC(N)C(O)C(C)O1)C3=O` (stereo partly drawn) [Compound 35, (1S,3S)-3-acetyl-11-amino-1-(4-amino-5-hydroxy-6-methyloxan-2-yl)oxy-3,6-dihydroxy-10-methoxy-2,4-dihydro-1H-tetracene-5,12-dione hydrochloride], in series [3] (Sus scrofa, PAE cells), the concentration for half-maximal inhibition (IC50) is 2.41e-11 M. The molecule further gave a cytotoxicity in series [4] of 7.98%.

Consider `CCC(=O)OCN1C(=O)C=CC1=O` [Compound 39, (2,5-dioxopyrrol-1-yl)methyl propanoate], for which the “type of inhibition (endothelial cell growth and/or tube formation)” value in series [2] (1 μM) is reported as “tube formation”. The same molecule registered a cytotoxicity in series [4] of 8.54%. Also, the “RTK inhibitory activity (in words)” value in series [5] is “showed RTK inhibitory activity”.

For `COc1cc2cc(c1Cl)N(C)C(=O)CC(OC(=O)C(C)C)C1(C)OC1C(C)C1CC(O)(NC(=O)O1)C(OC)/C=C/C=C(\C)C2` (stereo not shown) [Compound 56, Maytansinol isobutyrate or 4,24-Dioxa-9,22-diazatetracyclo[19.3.1.110,14.03,5] hexacosane, maytansine deriv.], the “type of inhibition (endothelial cell growth and/or tube formation)” value in series [2] is “tube formation”. In series [4], this molecule came in with a cytotoxicity of 7.52%.

`OC(c1cc(-c2ccccc2)nc2c1ccc1ccccc12)C1CCCCN1` (stereo not shown) [Compound 66, (2-phenylbenzo[h]quinolin-4-yl)-piperidin-2-ylmethanol]: in series [3] (Sus scrofa, PAE cells), the IC50 came to 4.12e-10 M. In series [4], this molecule came in with a cytotoxicity of 13.1%.

For the molecule “azidobenzene; 1H-indene; prop-1-en-2- ylbenzene [Compound 49]”, the “Apoptosis PAE (RFU)” value in series [1] is 1.235 RFU. This molecule also returned a Bioactivity in series [2] of 2.
